Reference: doi:10.1101/2024.08.19.608619, “Discovery of potent SARS-CoV-2 nsp3 macrodomain inhibitors uncovers lack of translation to cellular antiviral response” (bioRxiv, 2024)

Legend:
[1] = In vitro rat SD liver microsomal stability; format: in vitro ADME
Description: Supplement media-1.zip/Hepatic_Microsomal_Stability.csv, table | column: clint; t_half

CCK1 (CCKA) (h) = molecular target: T1, CCK1 (CCKA) (h) (Homo sapiens, UniProt P32238); assay: In vitro CEREP profiling, CCK1 (CCKA) (h) (agonist radioligand); format: binding; conditions: test compound 10 uM
T1 construct: purchased Eurofins Cerep (SafetyScreen44), recognised from the panel format
T1 sequence (P32238 1-428): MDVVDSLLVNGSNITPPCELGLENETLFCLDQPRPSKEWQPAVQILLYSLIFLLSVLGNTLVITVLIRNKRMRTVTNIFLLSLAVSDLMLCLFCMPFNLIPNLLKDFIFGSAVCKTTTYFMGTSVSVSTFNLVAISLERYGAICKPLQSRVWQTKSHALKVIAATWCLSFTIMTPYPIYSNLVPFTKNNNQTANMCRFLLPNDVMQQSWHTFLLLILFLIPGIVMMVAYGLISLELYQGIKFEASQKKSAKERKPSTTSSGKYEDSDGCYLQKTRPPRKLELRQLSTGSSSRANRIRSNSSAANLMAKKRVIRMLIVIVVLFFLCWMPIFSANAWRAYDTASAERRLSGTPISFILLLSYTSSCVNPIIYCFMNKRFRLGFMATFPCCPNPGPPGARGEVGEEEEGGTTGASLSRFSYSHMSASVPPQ
Description: (§1) Supplement media-1.zip/Safety_Panel_Profile.csv, table | column: perc_inhibition

H2 (h) = molecular target: T2, H2 (h) (Homo sapiens, UniProt P25021); assay: In vitro CEREP profiling, H2 (h) (antagonist radioligand); format: binding; conditions: test compound concentration 10 uM
T2 construct: purchased Eurofins Cerep (SafetyScreen44), recognised from the panel format
T2 sequence (P25021 whole entry): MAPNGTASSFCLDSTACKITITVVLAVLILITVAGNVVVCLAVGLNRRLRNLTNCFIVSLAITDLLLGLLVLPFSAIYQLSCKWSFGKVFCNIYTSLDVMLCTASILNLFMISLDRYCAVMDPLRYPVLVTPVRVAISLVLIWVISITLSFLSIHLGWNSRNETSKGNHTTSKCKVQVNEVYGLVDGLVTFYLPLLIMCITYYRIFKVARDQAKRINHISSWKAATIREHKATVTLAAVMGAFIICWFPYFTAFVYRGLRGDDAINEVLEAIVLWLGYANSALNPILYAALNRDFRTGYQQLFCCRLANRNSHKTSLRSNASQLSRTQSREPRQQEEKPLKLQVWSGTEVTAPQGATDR
Description: as §1

in vitro = conditions: human, hela-ace2 cells, 50.0
[2] = In vitro human hepatocyte stability; format: in vitro ADME
Description: Supplement media-1.zip/Hepatocyte_Stability.csv, table | column: clint; t_half

MAO-A = molecular target: T3, MAO-A (Rattus norvegicus, UniProt P21396); assay: In vitro CEREP profiling, MAO-A (antagonist radioligand); format: binding; conditions: test compound concentration 10 uM
T3 construct: purchased Eurofins Cerep (SafetyScreen44), recognised from the panel format
T3 sequence (P21396 1-526): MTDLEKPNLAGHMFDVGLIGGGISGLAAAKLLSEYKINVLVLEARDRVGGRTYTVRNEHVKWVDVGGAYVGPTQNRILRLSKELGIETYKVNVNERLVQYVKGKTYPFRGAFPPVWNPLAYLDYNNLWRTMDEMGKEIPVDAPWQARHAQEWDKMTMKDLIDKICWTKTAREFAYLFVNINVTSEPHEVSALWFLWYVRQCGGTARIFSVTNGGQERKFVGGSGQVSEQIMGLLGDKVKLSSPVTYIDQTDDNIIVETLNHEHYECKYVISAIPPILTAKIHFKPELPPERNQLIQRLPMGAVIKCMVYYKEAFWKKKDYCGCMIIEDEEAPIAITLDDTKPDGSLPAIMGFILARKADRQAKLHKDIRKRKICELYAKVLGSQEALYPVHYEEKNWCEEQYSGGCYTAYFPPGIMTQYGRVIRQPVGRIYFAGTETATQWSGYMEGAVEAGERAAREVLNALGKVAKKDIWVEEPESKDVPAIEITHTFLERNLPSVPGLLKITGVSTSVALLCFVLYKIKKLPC
Description: as §1

BZD (central) = assay: In vitro CEREP profiling, BZD (central) (agonist radioligand); format: binding; conditions: test compound 10 uM
Description: as §1

[3] = Hepatic microsomal stability, MLM; format: in vitro ADME; conditions: In vitro mouse liver microsomal stability
Protein binding = format: in vitro ADME
Description: Supplement media-1.zip/Protein_Binding.csv, table | column: fu; perc_bound; perc_free; perc_recovered

[4] = molecular target: T4, N neuronal alpha4beta2 (h) (Homo sapiens, UniProt P17787+P43681); assay: In vitro CEREP profiling, N neuronal alpha4beta2 (h) (agonist radioligand); format: binding; conditions: test compound concentration 10 uM
T4 construct: purchased Eurofins Cerep (SafetyScreen44), recognised from the panel format
T4 sequence (P43681 29-627 limits assumed): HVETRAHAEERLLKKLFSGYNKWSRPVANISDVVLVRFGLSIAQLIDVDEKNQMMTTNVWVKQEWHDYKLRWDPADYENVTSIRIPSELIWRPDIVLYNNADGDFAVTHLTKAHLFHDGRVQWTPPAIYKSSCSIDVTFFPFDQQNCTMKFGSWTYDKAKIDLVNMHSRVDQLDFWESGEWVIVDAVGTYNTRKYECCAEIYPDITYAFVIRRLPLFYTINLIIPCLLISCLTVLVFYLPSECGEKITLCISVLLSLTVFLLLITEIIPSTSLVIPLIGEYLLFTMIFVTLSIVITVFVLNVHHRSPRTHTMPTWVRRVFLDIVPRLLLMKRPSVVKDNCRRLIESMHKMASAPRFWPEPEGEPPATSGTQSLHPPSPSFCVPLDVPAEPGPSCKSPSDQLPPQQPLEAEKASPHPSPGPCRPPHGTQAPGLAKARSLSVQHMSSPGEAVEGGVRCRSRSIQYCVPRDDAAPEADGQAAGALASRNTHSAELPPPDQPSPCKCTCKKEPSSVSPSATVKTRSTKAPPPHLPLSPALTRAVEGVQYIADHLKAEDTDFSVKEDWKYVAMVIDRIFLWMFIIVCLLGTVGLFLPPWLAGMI
T4 sequence (P17787 26-502): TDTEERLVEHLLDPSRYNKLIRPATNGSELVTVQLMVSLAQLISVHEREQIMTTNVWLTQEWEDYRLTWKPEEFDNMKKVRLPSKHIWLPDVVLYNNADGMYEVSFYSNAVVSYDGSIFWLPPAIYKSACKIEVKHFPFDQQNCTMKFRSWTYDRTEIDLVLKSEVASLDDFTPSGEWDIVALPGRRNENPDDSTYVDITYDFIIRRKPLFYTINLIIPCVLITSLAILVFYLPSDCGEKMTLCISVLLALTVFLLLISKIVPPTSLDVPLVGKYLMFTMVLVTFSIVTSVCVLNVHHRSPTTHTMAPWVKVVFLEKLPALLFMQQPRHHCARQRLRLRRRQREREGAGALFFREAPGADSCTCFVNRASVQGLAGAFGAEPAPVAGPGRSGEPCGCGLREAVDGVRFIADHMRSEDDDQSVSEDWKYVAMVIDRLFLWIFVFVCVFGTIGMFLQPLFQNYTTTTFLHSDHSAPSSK
Description: as §1

CB2 (h) = molecular target: T5, CB2 (h) (Homo sapiens, UniProt P34972); assay: In vitro CEREP profiling, CB2 (h) (agonist radioligand); format: binding; conditions: test compound 10 uM
T5 construct: purchased Eurofins Cerep (SafetyScreen44), recognised from the panel format
T5 sequence (P34972 whole entry): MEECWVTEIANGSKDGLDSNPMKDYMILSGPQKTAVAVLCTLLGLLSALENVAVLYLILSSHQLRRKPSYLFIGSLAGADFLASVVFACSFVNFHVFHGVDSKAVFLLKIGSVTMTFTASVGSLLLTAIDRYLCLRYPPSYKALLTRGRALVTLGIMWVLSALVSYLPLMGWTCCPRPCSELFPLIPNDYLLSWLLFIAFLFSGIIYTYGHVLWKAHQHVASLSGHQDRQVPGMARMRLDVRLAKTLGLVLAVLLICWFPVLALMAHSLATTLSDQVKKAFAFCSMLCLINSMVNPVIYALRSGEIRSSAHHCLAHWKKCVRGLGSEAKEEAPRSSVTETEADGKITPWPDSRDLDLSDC
Description: as §1

[5] = molecular target: T6, norepinephrine transporter (h) (Homo sapiens, UniProt P23975); assay: In vitro CEREP profiling, norepinephrine transporter (h) (antagonist radioligand); format: binding; conditions: test compound concentration 10 uM
T6 construct: purchased Eurofins Cerep (SafetyScreen44), recognised from the panel format
T6 sequence (P23975 whole entry): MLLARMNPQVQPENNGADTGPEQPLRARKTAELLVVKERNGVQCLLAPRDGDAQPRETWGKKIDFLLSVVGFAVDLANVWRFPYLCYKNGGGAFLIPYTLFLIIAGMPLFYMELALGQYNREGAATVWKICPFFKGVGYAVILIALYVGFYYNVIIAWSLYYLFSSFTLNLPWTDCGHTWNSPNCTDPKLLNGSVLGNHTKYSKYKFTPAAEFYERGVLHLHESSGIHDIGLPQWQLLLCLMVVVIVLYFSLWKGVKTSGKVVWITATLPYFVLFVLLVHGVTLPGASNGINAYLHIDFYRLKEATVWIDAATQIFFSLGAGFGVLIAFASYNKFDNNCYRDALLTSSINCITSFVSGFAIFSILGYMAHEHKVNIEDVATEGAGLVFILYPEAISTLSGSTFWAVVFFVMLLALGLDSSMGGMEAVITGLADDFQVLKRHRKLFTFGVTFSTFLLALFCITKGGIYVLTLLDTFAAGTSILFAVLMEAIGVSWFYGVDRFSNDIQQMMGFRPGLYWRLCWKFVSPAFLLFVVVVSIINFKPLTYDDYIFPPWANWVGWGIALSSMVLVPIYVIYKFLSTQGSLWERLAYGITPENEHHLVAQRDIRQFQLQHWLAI
Description: as §1

5-HT3 (h) = molecular target: T7, 5-HT3 (h) (Homo sapiens, UniProt P46098); assay: In vitro CEREP profiling, 5-HT3 (h) (antagonist radioligand); format: binding; conditions: test compound concentration 10 uM
T7 construct: purchased Eurofins Cerep (SafetyScreen44), recognised from the panel format
T7 sequence (P46098 24-478): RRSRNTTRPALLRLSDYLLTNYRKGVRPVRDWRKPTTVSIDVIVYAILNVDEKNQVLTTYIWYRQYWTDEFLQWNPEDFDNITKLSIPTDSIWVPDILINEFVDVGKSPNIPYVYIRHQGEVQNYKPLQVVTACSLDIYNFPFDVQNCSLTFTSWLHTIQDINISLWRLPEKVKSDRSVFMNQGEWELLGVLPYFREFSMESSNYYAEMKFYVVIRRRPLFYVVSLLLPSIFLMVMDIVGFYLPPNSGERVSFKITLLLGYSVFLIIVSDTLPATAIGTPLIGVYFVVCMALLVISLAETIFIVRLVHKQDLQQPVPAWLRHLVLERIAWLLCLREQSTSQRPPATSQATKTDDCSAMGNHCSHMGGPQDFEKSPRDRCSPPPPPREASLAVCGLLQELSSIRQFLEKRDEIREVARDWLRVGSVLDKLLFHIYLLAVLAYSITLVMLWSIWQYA
Description: as §1

M3 (h) = molecular target: T8, M3 (h) (Homo sapiens, UniProt P20309); assay: In vitro CEREP profiling, M3 (h) (antagonist radioligand); format: binding; conditions: test compound concentration 10 uM
T8 construct: purchased Eurofins Cerep (SafetyScreen44), recognised from the panel format
T8 sequence (P20309 whole entry): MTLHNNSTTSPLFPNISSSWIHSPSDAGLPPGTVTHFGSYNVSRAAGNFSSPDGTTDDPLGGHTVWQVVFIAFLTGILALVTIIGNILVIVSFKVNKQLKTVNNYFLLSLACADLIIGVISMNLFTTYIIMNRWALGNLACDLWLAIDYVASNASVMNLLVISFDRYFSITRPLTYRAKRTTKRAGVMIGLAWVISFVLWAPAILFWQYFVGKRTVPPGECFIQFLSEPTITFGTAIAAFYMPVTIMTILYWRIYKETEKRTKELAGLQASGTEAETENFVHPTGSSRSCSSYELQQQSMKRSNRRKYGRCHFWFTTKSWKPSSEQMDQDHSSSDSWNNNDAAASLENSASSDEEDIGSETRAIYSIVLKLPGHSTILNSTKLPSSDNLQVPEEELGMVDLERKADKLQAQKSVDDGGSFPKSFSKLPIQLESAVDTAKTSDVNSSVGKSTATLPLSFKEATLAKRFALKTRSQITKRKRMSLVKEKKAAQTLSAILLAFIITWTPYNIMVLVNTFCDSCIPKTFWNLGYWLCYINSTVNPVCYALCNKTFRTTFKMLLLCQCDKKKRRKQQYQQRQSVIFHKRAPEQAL
Description: as §1

delta (DOP) (h) = molecular target: T9, delta (DOP) (h) (Homo sapiens, UniProt P41143); assay: In vitro CEREP profiling, delta (DOP) (h) (agonist radioligand); format: binding; conditions: test compound concentration 10 uM
T9 construct: purchased Eurofins Cerep (SafetyScreen44), recognised from the panel format
T9 sequence (P41143 whole entry): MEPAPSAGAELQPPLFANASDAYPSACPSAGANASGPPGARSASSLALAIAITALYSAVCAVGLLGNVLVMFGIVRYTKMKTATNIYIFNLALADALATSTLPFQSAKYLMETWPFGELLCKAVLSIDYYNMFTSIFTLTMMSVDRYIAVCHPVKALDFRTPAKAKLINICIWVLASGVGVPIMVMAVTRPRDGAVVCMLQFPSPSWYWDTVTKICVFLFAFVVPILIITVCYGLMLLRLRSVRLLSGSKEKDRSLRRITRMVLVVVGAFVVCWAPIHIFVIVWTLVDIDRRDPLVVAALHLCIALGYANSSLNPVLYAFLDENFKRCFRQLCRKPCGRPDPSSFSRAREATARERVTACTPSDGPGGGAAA
Description: as §1

[6] = In vitro dog plasma protein binding
[7] = In vitro fetal calf serum protein binding
[8] = In vitro human plasma protein binding
[9] = In vitro mouse plasma protein binding
[10] = In vitro rat plasma protein binding

COc1ccc([C@H](Cc2nnn[nH]2)NC(=O)c2ncnc3[nH]ccc23)cc1 [ASAP-0015381]
clint [1]: < 5.0 µL/min/mg
t_half [1]: > 139.0 min
perc_inhibition (% inhibition of the binding of a ligand specific for each target) (CCK1 (CCKA) (h)): -5%
perc_inhibition (% inhibition of the binding of a ligand specific for each target) (H2 (h)): -24%
CC50 at 24 h (in vitro): > 20 µM
clint [2]: < 3.0 uL/min/1E6 cells
t_half [2]: > 231.0 min
perc_inhibition (% inhibition of the binding of a ligand specific for each target) (MAO-A): 0%
perc_inhibition (% inhibition of the binding of a ligand specific for each target) (BZD (central)): 0%
clint [3]: 7.0 µL/min/mg
perc_remaining [3]: 115.387%
t_half [3]: 205.885 min
perc_remaining_no_cofactor ([3]; no cofactor): 100.411%
fu (Protein binding; [6]): 0.106
perc_bound (Protein binding; [6]): 89.4%
perc_free (Protein binding; [6]): 10.6%
perc_recovered (Protein binding; [6]): 90.64%
fu (Protein binding; [7]): 0.061
perc_bound (Protein binding; [7]): 93.9%
perc_free (Protein binding; [7]): 6.07%
perc_recovered (Protein binding; [7]): 101.6%
fu (Protein binding; [8]): 0.01
perc_bound (Protein binding; [8]): 99.0%
perc_free (Protein binding; [8]): 1.01%
perc_recovered (Protein binding; [8]): 102.0%
fu (Protein binding; [9]): 0.306
perc_bound (Protein binding; [9]): 69.4%
perc_free (Protein binding; [9]): 30.6%
perc_recovered (Protein binding; [9]): 84.29%
fu (Protein binding; [10]): 0.047
perc_bound (Protein binding; [10]): 95.3%
perc_free (Protein binding; [10]): 4.69%
perc_recovered (Protein binding; [10]): 100.2%
perc_inhibition (% inhibition of the binding of a ligand specific for each target) [4]: 4%
perc_inhibition (% inhibition of the binding of a ligand specific for each target) (CB2 (h)): -11%
perc_inhibition (% inhibition of the binding of a ligand specific for each target) [5]: -5%
perc_inhibition (% inhibition of the binding of a ligand specific for each target) (5-HT3 (h)): 6%
perc_inhibition (% inhibition of the binding of a ligand specific for each target) (M3 (h)): -15%
perc_inhibition (% inhibition of the binding of a ligand specific for each target) (delta (DOP) (h)): -30%
